Active and inactive are the calls of the source. The rule behind the calls is not given here.

The target of one assay is Carbonic anhydrase 3 (Homo sapiens, UniProt P07451).
Assay [1] has as its target Carbonic anhydrase 2 (Homo sapiens) (UniProt P00918). Put plainly: Binding affinity to human full length CAH2 expressed in Escherichia coli BL21 (DE3) assessed as binding concentration causing thermal stabilization by Sypro-Orange dye based DSF assay. On the technique in general: DSF heats the sample and reads unfolding from a dye or from intrinsic fluorescence.
Assay [2] addresses Carbonic anhydrase 9 (Homo sapiens) (UniProt Q16790). To be noted: T47D, dose 50.0 nM.
The target is the same in assay [3]. To be noted: UFH-001, dose 50.0 nM.

Carbonic anhydrase 3, sequence (P07451 whole entry): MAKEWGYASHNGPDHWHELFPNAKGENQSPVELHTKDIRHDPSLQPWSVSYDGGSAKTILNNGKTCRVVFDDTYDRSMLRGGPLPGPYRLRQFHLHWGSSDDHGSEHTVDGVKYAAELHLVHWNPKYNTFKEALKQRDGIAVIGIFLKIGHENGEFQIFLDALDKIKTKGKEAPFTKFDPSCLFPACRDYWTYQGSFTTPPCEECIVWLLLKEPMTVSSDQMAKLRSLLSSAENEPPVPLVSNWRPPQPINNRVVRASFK

As a reminder, the Ki is a dissociation constant, usually derived from enzyme kinetics or from competition with a known ligand. Turning to `NS(=O)(=O)c1ccc(N2CCN(c3ccc(F)cc3F)C2=O)cc1`, the Ki on Carbonic anhydrase 3 is > 10 µM. Besides, the Activity in assay [1] was 0.1 mM.

As for `CCOc1ccc2nc(S(N)(=O)=O)sc2c1`, the inhibition result in assay [2] and in assay [3] was “Active” in each case.
